According to publication PMC9666501, “Screening for effective cell-penetrating peptides with minimal impact on epithelial cells and gut commensals in vitro” (Frontiers in Pharmacology, 2022):
Entries after “also recorded” stand apart in the source; their conditions may differ. No end group written: not given here.

Experiments:
Caco-2 monolayers [1] = test: FITC-dextran translocation assay; format: cell-based, human; settings: for FITC-dextran translocation / Paracellular permeability (TEER and FITC-dextran assays collectively): Caco-2 monolayers; for FITC-dextran translocation: CPP 100 µM; for Paracellular permeability (TEER and FITC-dextran assays collectively): in the concentrations tested; for Paracellular permeability of FITC-dextran (Papp A-B): Caco-2 monolayers 21 days, each CPP at a concentration without cytotoxicity, apical, 1 h, 37 °C, pH 7.4, then 1 mg/ml FITC-dextran 4 for 30 min, fluorescence, n = 3
Procedure: (§1) For Fluorescein Isothiocyanate (FITC)-Dextran permeability experiments, Caco-2 monolayers differentiated for 21 days were transferred to 12-well plates containing 1.5 ml phenol red free DMEM media (pH 7.4) in the basal compartments. For the treatment, medium in the apical compartment was replaced by 0.5 ml phenol red free DMEM medium containing different concentrations of CPPs, and the plates were incubated at 37 °C for 1 h. Post treatment, inserts were transferred to a new 12-well plate containing 1.5 ml fresh phenol red free DMEM and the apical medium was replaced by medium containing 1 mg/ml FITC-dextran 4 (Sigma-Aldrich). The incubation with the permeability marker lasted for 30 min. Samples were collected from the basolateral compartments post incubation and fluorescence was measured using multi-well fluorescent plate reader (Synergy; excitation wavelength: 490 nm, emission wavelength: 520 nm). The concentration of FITC-dextran in the samples was calculated by comparing the relative fluorescence values to the FITC-dextran standard curve. The apparent permeability coefficient (Papp, cm/s) was calculated according to Eq. 1. Papp=dQ/dt×1/(A×C0), (1) Where dQ/dt is the drug permeation rate (μg/s); a is the surface area of the inserts (cell monolayer) (cm^2); and C0 is the initial concentration at the apical side (μg/ml).

[2] = rats, without damaging the epithelial barrier integrity, ref Kamei et al., 2008, Morishita et al., Bocsik et al., 2019; cited from earlier work
Procedure: (§2) In the present work we systematically screened for effective CPPs that promote intestinal permeation through paracellular route and have negligible or no harmful effects against human epithelial cells and gut microbial strains. […] The results from the cytotoxicity and cell viability assays were in concordance except for RRL helix and PN159 at 5 µM. This minor difference most likely has to do with the sensitivity of the assay. The reducing capacity of the cells (as measured by AlamarBlue) is not the same as membrane integrity (as measured by Cytotoxic Red).

Caco-2 monolayers [3] = test: Transepithelial electrical resistance (TEER) of Caco-2 monolayers; format: cell-based, human; settings: for Reduction in TEER: Caco-2 monolayers, CPP 100 µM; for Change in TEER values after 1 h treatment with CPPs: Caco-2 monolayers differentiated 21 days, each CPP at a concentration without cytotoxicity, 37 °C, n = 3, p < 0.01 vs no treatment
Procedure: Transepithelial electrical resistance (TEER) represents the barrier integrity and permeability of the Caco-2 monolayers. To measure TEER, cells were seeded and grown on 12-well cell culture inserts ([…], 1.1 cm, polyethylene terephthalate membrane, cellQART) for a period of 21 days. TEER was measured using Millicell® ERS-2 Voltohmeter (MERS00002), combined with a STX-04 electrode. Final TEER values were expressed relative to the surface area of the inserts (ΩTotal - ΩInsert X cm^2). TEER values were monitored every day from day 14 until day 21, before, and after permeability experiments. On day 21 of differentiation, TEER values of the monolayers were 600 ± 50 Ω X cm^2 (mean ± SD; n = 48).
as §1

Caco-2 cells [4] = format: cell-based; settings: CPP 1, 5, 10, 50, 100 µM in DMEM, 1 h treatment (legend; method says 2 h), 37°C, Incucyte imaging, n = 2
Procedure: Caco-2 cells were seeded (6 × 10^3 cells/well) in Corning™ Costar™ 96-Well, Cell Culture-Treated, Flat-Bottom Microplate and grown at 37°C with 5% CO2 until reaching confluence. […] Fluorescence was measured with microplate reader Synergy™ H1 BioTek; (excitation wavelength: 560 nm, emission wavelength: 590 nm) and a curve of Relative Fluorescence Units (RFU) against different concentrations of CPPs was plotted.
[…] The cells were then imaged using the Incucyte® Live-Cell analysis instrument. Cytotox Red dye dilution: The dye was diluted to a stock concentration of 100 µM in PBS. This was further diluted in full media to yield a final concentration of 250 nM before adding to the cells.

Caco-2 cells [5] = test: AlamarBlue cell viability assay; format: cell-based, human; settings: for Cell toxicity and viability: CPP 50 µM, Cytotox Red and AlamarBlue assays; for Cell viability (AlamarBlue, % live cells vs control): CPP 5 µM, 1 h treatment (legend; method says 2 h), 37°C, fluorescence 560/590 nm, n = 3
Procedure: Caco-2 cells were seeded (6 × 10^3 cells/well) in Corning™ Costar™ 96-Well, Cell Culture-Treated, Flat-Bottom Microplate and grown at 37°C with 5% CO2 until reaching confluence. For alamarBlue cell viability staining, cells were exposed to treatments (DMEM + AlamarBlue (10 µL) + CPPs) at different concentrations and incubated for 2 h at 37°C with 5% CO2. Fluorescence was measured with microplate reader Synergy™ H1 BioTek; (excitation wavelength: 560 nm, emission wavelength: 590 nm) and a curve of Relative Fluorescence Units (RFU) against different concentrations of CPPs was plotted.

[6] = test system: Bifidobacterium longum ATCC 15697; test: Broth microdilution antimicrobial assay; format: cell-based; settings: microbroth dilution in mGAM, anaerobic, 37 °C, 24 h, OD600, CPP 0.01-100 µM
Procedure: (§3) Gut commensal microbial strains used in this study (Table 2) were purchased from […] (ATCC) and DSMZ, Germany. The growth and screening experiments were performed in modified Gifu Anaerobic Medium (mGAM) (HyServe GmbH and Co.) as all the strains could grow well in this media. mGAM was pre-reduced for a minimum of 1 day in the anaerobic chamber (Coy laboratory products Inc.) before use.
(§4) The antimicrobial effects of CPPs were determined by performing microbroth dilution method. The overnight cultures of the strains were diluted 100-fold in mGAM broth and 100 µL of the diluted cultured were distributed in the 96-well microplate. Next, 100 µL of CPPs in their respective concentrations were added to respective wells. Plates were incubated aerobically (Escherichia coli Nissle, Escherichia coli K12, and Saccharomyces boulardii) or anaerobically (rest of the strains) at 37 °C for 24 h with or without shaking, respectively. Reading of each plate was performed by measuring the optical density (OD) at 600 nm in a microplate reader (Synergy™ H1 BioTek). The final absorbance values were normalized and represented as values between 0 and 1 as a heat map, where 0 being full inhibition and 1 being no inhibition. The MIC was determined as the minimum concentration of the CPPs at which no significant growth of the strain was observed as compared to medium only (blank).

[7] = test system: Latilactobacillus sakei ATCC 15521; test: Broth microdilution antimicrobial assay; format: cell-based; settings: microbroth dilution in mGAM, anaerobic, 37 °C, 24 h, OD600, CPP 0.01-100 µM
Procedure: as §3, §4

[8] = test system: Clostridium bolteae DSM 29485; test: Broth microdilution antimicrobial assay; format: cell-based; settings: microbroth dilution in mGAM, anaerobic, 37 °C, 24 h, OD600, CPP 0.01-100 µM
Procedure: as §3, §4

Caco-2 monolayers [9] = settings: cited from earlier work
Procedure: as §2

[10] = test system: Bacteroides thetaiotaomicron DSM 2079; test: Broth microdilution antimicrobial assay; format: cell-based; settings: B. thetaiotaomicron; microbroth dilution in mGAM, anaerobic, 37 °C, 24 h, OD600; CPP 0.01-100 µM
Procedure: as §3, §4

[11] = test system: Escherichia coli K12 MG 1655; test: Broth microdilution antimicrobial assay; format: cell-based; settings: microbroth dilution in mGAM, aerobic with shaking, 37 °C, 24 h, OD600, CPP 0.01-100 µM
Procedure: as §3, §4

[12] = test system: Bifidobacterium adolescentis DSM 20083; test: Broth microdilution antimicrobial assay; format: cell-based; settings: microbroth dilution in mGAM, anaerobic, 37 °C, 24 h, OD600, CPP 0.01-100 µM
Procedure: as §3, §4

[13] = test system: Lactobacillus gasseri DSM 20077; test: Broth microdilution antimicrobial assay; format: cell-based; settings: microbroth dilution in mGAM, anaerobic, 37 °C, 24 h, OD600, CPP 0.01-100 µM
Procedure: as §3, §4

[14] = test system: Bacteroides vulgatus ATCC 8482; test: Broth microdilution antimicrobial assay; format: cell-based; settings: B. vulgatus; microbroth dilution in mGAM, anaerobic, 37 °C, 24 h, OD600; CPP 0.01-100 µM
Procedure: as §3, §4

[15] = test system: Escherichia coli Nissle 1917 (Mutaflor); test: Broth microdilution antimicrobial assay; format: cell-based; settings: microbroth dilution in mGAM, aerobic with shaking, 37 °C, 24 h, OD600, CPP 0.01-100 µM
Procedure: as §3, §4

[16] = test system: 10 commensal gut microbial strains; test: Broth microdilution antimicrobial assay, panel summary; format: cell-based; settings: range over the strains that were totally inhibited; mGAM, 37 °C, 24 h
Procedure: as §3, §4

Saccharomyces cerevisiae = test system: Saccharomyces cerevisiae; set-up: method as in Palm et al in 2006; settings: ref Palm et al in 2006; cited from earlier work

Molecule: RRRRRRRRR [R9, Synthetic oligoarginine cell-penetrating peptide]
- FITC-dextran translocation (Caco-2 monolayers [1]): did not observe reduction in TEER or elevated FITC-dextran translocation
- Paracellular permeability (TEER and FITC-dextran assays collectively) (Caco-2 monolayers [1]): did not exhibit paracellular permeability
- Intestinal absorption of therapeutic peptides [2]: effective tools at improving intestinal absorption of therapeutic peptides
- Reduction in TEER (Caco-2 monolayers [3]): did not observe reduction in TEER

Molecule: KWFKIQMQIRRWKNKR [Penetramax]
- Cytotoxicity (Cytotox Red dye staining, dead cells) (Caco-2 cells [4]): significant toxicity only at the highest concentration tested (100 µM)
- Paracellular permeability of FITC-dextran (Papp A-B) (Caco-2 monolayers [1]): highest paracellular permeability
- Cell toxicity and viability (Caco-2 cells [5]): without having significant effects on cell toxicity and viability
- Minimum inhibitory concentration (MIC) [6]: 10 µM
- Minimum inhibitory concentration (MIC) [7]: 100 µM
- Minimum inhibitory concentration (MIC) [8]: 100 µM

Molecule: RWFKIQMQIRRWKNKK [Shuffle]
- Cytotoxicity (Cytotox Red dye staining, dead cells) (Caco-2 cells [4]): significant toxicity only at the highest concentration tested (100 µM)
- Paracellular permeability of FITC-dextran (Papp A-B) (Caco-2 monolayers [1]): highest paracellular permeability
- Cell toxicity and viability (Caco-2 cells [5]): without having significant effects on cell toxicity and viability
- Minimum inhibitory concentration (MIC) [6]: 10 µM
- Minimum inhibitory concentration (MIC) [7]: 100 µM
- Minimum inhibitory concentration (MIC) [8]: 50 µM

Molecule: CC(C)C[C@H](NC(=O)[C@H](C)NC(=O)[C@H](CCCCN)NC(=O)[C@H](CC(C)C)NC(=O)[C@H](C)NC(=O)[C@H](CC(C)C)NC(=O)[C@H](CCCCN)NC(=O)[C@H](CC(C)C)NC(=O)[C@H](C)NC(=O)[C@H](CC(C)C)NC(=O)[C@@H](N)CCCCN)C(=O)N[C@@H](CCCCN)C(=O)N[C@@H](C)C(=O)N[C@@H](C)C(=O)N[C@@H](CC(C)C)C(=O)N[C@@H](CCCCN)C(=O)N[C@@H](CC(C)C)C(=O)N[C@@H](C)C(N)=O [PN159]
- Cytotoxicity (Cytotox Red dye staining, dead cells) (Caco-2 cells [4]): toxic at 5 µM; also recorded: Toxicity from 5 μM
- Paracellular permeability of FITC-dextran (Papp A-B) (Caco-2 monolayers [1]): highest paracellular permeability
- Cell viability (AlamarBlue, % live cells vs control) (Caco-2 cells [5]): no significant toxic effect; also recorded: no significant effect on cell viability
- Paracellular permeability of Caco-2 monolayers via tight junction modulation (Caco-2 monolayers [9]; CPP 3 µM, ref Bocsik et al in 2019): significantly improve paracellular permeability of Caco-2 monolayers
- Minimum inhibitory concentration (MIC) [10]: 10 µM
- Minimum inhibitory concentration (MIC) [11]: 5 µM
- Minimum inhibitory concentration (MIC) [12]: 10 µM
- Minimum inhibitory concentration (MIC) [6]: 1 µM
- Minimum inhibitory concentration (MIC) [7]: 1 µM
- Minimum inhibitory concentration (MIC) [8]: 1 µM
- Minimum inhibitory concentration (MIC) [13]: 5 µM
- Minimum inhibitory concentration (MIC) [14]: 10 µM
- Minimum inhibitory concentration (MIC) [15]: 50 µM
- MICs over the totally inhibited strains of the panel [16]: 1 to 50 µM

Molecule: LLIILRRRIRKQAHAHSK [pVEC, Protein derived cell-penetrating peptide]
- Paracellular permeability (TEER and FITC-dextran assays collectively) (Caco-2 monolayers [1]): did not exhibit paracellular permeability
- Change in TEER values after 1 h treatment with CPPs (Caco-2 monolayers [3]): significant reduction in TEER values
- Concentration without inhibition of growth (Saccharomyces cerevisiae): > 25 µM

Molecule: RQIKIWFQNRRMKWKK [Penetratin, Protein derived cell-penetrating peptide]
- Permeabilizing effect in the Caco-2 monolayer setup (Caco-2 monolayers [1]): no permeabilizing effect
- Paracellular permeability (TEER and FITC-dextran assays collectively) (Caco-2 monolayers [1]): did not exhibit paracellular permeability
- Paracellular permeability of Caco-2 monolayers (Caco-2 monolayers [9]): did not improve paracellular permeability
- Change in TEER values after 1 h treatment with CPPs (Caco-2 monolayers [3]): significant reduction in TEER values
- Concentration without inhibition of growth (Saccharomyces cerevisiae): > 25 µM

Molecule: RRLRRLLRRLRRLLRRLR [RRL helix]
- Cytotoxicity (Cytotox Red dye staining, dead cells) (Caco-2 cells [4]): toxic at 5 µM; also recorded: Toxicity from 5 μM
- Paracellular permeability of FITC-dextran (Papp A-B) (Caco-2 monolayers [1]): highest paracellular permeability
- Cell viability (AlamarBlue, % live cells vs control) (Caco-2 cells [5]): no significant toxic effect
- Minimum inhibitory concentration (MIC) [12]: 100 µM
- Minimum inhibitory concentration (MIC) [6]: 5 µM
- Minimum inhibitory concentration (MIC) [7]: 50 µM
- Minimum inhibitory concentration (MIC) [8]: 10 µM
- Minimum inhibitory concentration (MIC) [15]: 50 µM
- MICs over the totally inhibited strains of the panel [16]: 5 to 100 µM

Molecule: RRRRRRRR [R8, Synthetic oligoarginine cell-penetrating peptide]
- FITC-dextran translocation (Caco-2 monolayers [1]): did not observe reduction in TEER or elevated FITC-dextran translocation
- Paracellular permeability (TEER and FITC-dextran assays collectively) (Caco-2 monolayers [1]): did not exhibit paracellular permeability
- Intestinal absorption of therapeutic peptides [2]: effective tools at improving intestinal absorption of therapeutic peptides
- Reduction in TEER (Caco-2 monolayers [3]): did not observe reduction in TEER

Molecule: YGRKKRRQRRR [Tat]
- Permeabilizing effect in the Caco-2 monolayer setup (Caco-2 monolayers [1]): no permeabilizing effect
- Paracellular permeability (TEER and FITC-dextran assays collectively) (Caco-2 monolayers [1]): did not exhibit paracellular permeability
